Ki data for seven molecules are collected here from ChEMBL document CHEMBL1795207, “Syntheses of cellotriose and cellotetraose analogues as transition state mimics for mechanistic studies of cellulases” (Bioorg Med Chem, 2011).

By Ki is commonly meant the equilibrium dissociation constant of an inhibitor or competing ligand from its target.

The target of the first experiment is T1, Endoglucanase-5 (Mycothermus thermophilus, UniProt P43316).
T1 sequence (P43316 whole entry): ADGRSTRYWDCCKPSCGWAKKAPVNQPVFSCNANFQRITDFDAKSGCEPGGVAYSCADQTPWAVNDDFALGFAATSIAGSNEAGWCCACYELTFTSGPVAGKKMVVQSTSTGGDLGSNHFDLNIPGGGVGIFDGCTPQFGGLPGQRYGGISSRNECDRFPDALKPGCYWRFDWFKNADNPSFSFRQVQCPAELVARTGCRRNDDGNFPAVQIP
The experiment in a line: Binding affinity to Humicola insolens NCE5 assessed as dissociation constant at pH 3.0 and at 59 degC by differential scanning calorimetry. For orientation: DSC measures the heat that a sample takes up or gives off during a temperature scan.
For `CO[C@@H]1O[C@H](CO)[C@@H](O[C@@H]2O[C@H](CO)[C@@H](S[C@@H]3O[C@H](CO)[C@@H](O[C@@H]4O[C@H](CO)[C@@H](O)[C@H](O)[C@H]4O)[C@H](O)[C@H]3O)[C@H](O)[C@H]2O)[C@H](O)[C@H]1O`, the Ki is 3.9 mM.
In the case of `CO[C@H]1O[C@H](CO)[C@@H](S[C@@H]2O[C@H](CO)[C@@H](O[C@@H]3O[C@H](CO)[C@@H](O)[C@H](O)[C@H]3O)[C@H](O)[C@H]2O)[C@H](O)[C@H]1O`, the Ki was over 30 mM.
Consider `CO[C@H]1O[C@H](CO)[C@@H](S[C@@H]2C=C(CO)[C@@H](O[C@@H]3O[C@H](CO)[C@@H](O)[C@H](O)[C@H]3O)[C@H](O)[C@H]2O)[C@H](O)[C@H]1O`, for which the Ki was determined as 25 mM.
Still for that read-out and setting: to `CO[C@@H]1O[C@H](CO)[C@@H](O[C@@H]2O[C@H](CO)[C@@H](S[C@@H]3C=C(CO)[C@@H](O[C@@H]4O[C@H](CO)[C@@H](O)[C@H](O)[C@H]4O)[C@H](O)[C@H]3O)[C@H](O)[C@H]2O)[C@H](O)[C@H]1O` belongs 1.6 mM; to `CO[C@@H]1O[C@H](CO)[C@@H](S[C@@H]2O[C@H](CO)[C@@H](O[C@@H]3O[C@H](CO)[C@@H](O)[C@H](O)[C@H]3O)[C@H](O)[C@H]2O)[C@H](O)[C@H]1O`, over 30 mM.
In the case of `CO[C@@H]1O[C@H](CO)[C@@H](S[C@@H]2C=C(CO)[C@@H](O[C@@H]3O[C@H](CO)[C@@H](O)[C@H](O)[C@H]3O)[C@H](O)[C@H]2O)[C@H](O)[C@H]1O`, the Ki was found to be 29 mM.

In the next experiment the target is T1, Endoglucanase-5. In words: Binding affinity to Humicola insolens NCE5 assessed as dissociation constant at pH 4.
Take `O=C[C@H](O)[C@@H](O)[C@H](O[C@@H]1O[C@H](CO)[C@@H](O[C@@H]2O[C@H](CO)[C@@H](O[C@@H]3O[C@H](CO)[C@@H](O[C@@H]4O[C@H](CO)[C@@H](O[C@@H]5O[C@H](CO)[C@@H](O)[C@H](O)[C@H]5O)[C@H](O)[C@H]4O)[C@H](O)[C@H]3O)[C@H](O)[C@H]2O)[C@H](O)[C@H]1O)[C@H](O)CO` [CELLOHEXOSE]: the Ki came out at 0.42 mM.
